Data taken from patent US20080242600A1, “Backbone Cyclized Melanocortin Stimulating Hormone (Alpha Msh) Analogs” (priority 2005, published 2008).
Entries after “also recorded” stand apart in the source; their conditions may differ. *1 amine or outer side, *2 acyl side, *3 side chain or, on linkers, in order; H or OH if unused. Where a SMILES comes first, the peptide text is derived from it. Bridges are numbered along the chain shown (N, C = ends). [ ]: non-standard residue; d: D form. NGly(3-aminopropyl) = O=C(CN(CCCN[*:3])[*:1])[*:2]; N(2-Aminoethyl)Gly = O=C(CN(CCN[*:3])[*:1])[*:2]; Heptanedioyl = O=C(CCCCCC(=O)[*:2])[*:1]; Adipoyl = O=C(CCCCC(=O)[*:2])[*:1]; Glutaryl = O=C(CCCC(=O)[*:2])[*:1]; Suc = O=C(CCC(=O)[*:2])[*:1]; Nlys = NCCCCNCC(=O)O

Key:
MC4R [1] = biological target: T1, MC4R (Homo sapiens, UniProt P32245); experiment: Receptor binding assay (IC50 on the MC4R)
T1 construct: expressed in transfected cells; host or cells: CHO cells
T1 sequence (P32245 whole entry, species assumed): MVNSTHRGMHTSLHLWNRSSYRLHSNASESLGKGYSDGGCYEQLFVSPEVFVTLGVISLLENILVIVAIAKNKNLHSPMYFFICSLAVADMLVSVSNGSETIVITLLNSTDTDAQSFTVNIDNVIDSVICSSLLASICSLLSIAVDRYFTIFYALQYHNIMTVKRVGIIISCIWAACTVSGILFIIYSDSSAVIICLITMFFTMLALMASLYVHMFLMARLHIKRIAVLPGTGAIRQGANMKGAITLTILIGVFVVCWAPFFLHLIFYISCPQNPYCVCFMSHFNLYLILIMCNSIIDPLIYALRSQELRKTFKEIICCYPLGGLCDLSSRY
Description: The analogs can be further tested in vitro for their influence on cyclic adenosine monophosphate (cAMP) levels. Intestinal permeability and metabolic stability of the analogs can be tested in vivo. The analogs can be further tested in vivo in preclinical models in order to identify the optimal mode of administration and proper dose, and to verify the safety and the efficacy of these new potential therapeutic drugs.
Transfected CHO cells are washed with binding buffer 8 and distributed into 96-well plates (approximately 40,000 cells/well). […] NDP-α-MSH and appropriate concentrations of an unlabelled ligand. After incubation, the cells are washed with 0.2 ml of ice-cold binding buffer and detached from the plates with 0.2 ml of 0.1 N NaOH. Radioactivity is counted (Wallac, Wizard automatic gamma counter) and data analyzed with a software package for radioligand binding analyses (Wan System, Umea, Sweden) by fitting it to formulas derived from the law of mass-action by the method generally referred to as computer modeling. The binding assays are performed in duplicate wells.

[2] = Assessment of intestinal metabolic stability in brush border membrane vesicles; assay type: in vitro ADME; details: rat intestinal brush border membranes
Protocol: Brush-border membrane vesicles (BBMVs) were prepared from combined duodenum, jejunum, and upper ileum by a Ca++precipitation method (PEERCE). The intestines of 5 male Wistar rats, 200-250 g, were rinsed with ice cold 0.9% Nacl and freed of mucos, the mucosa was scraped off the luminal surface with glass slides and put immediately into buffer containing […] Kcl and 10 mM Tris-HCl (pH 7.5, 4° C.) and the mixture homogenated by Ploytron (Polytron PT 1200, Kinematica AG, Switzerland). CaCl was added to a final concentration of 10 mM. The homogenate was left shaking for 30 min at 4° C. and afterwards centrifuged at 10,000 g for 10 min (centrifuge) the supernatant was then centrifuged at 48,000 g for 30 min an additional two purification steps were undertaken by suspending the pellet in 300 mM mannitol and 10 mM Hepes/Tris (pH 7.5) and centrifuge 24,000 g/hr. Purification of brush border membranes was assayed using the brush border membrane enzyme markers GGT, LAP and alkaline phosphatase. During the course of these studies, enrichment in brush border membrane enzymes varied between 13- and 18-fold.

MC4R [3] = biological target: T1, MC4R; experiment: Determination of receptor activation (cAMP accumulation assay); assay type: cell-based
Protocol: cAMP Accumulation Assays: 48 h after transfection, CHO cells are washed once with PBS and then detached from the plate with PBS containing 0.02% EDTA (Sigma). The detached cells are harvested by centrifugation and resuspended in Hanks' balanced salt solution (Invitrogen) containing 0.5 mM IBMX, 2 mM HEPES, pH 7.5 (IBMX buffer). After incubation at 37° C. for 15 min to allow for IBMX uptake, 0.4 ml of cell suspension (5×10^5 cells/ml) is added to 0.1 ml of IBMX buffer containing various concentrations of agonists or 10 μM forskolin. The cells are subsequently incubated at 37° C. for 15 min to allow for cAMP accumulation. The activity is terminated by adding 0.5 ml of 5% trichloroacetic acid, and cAMP released from lysed cells is assayed by the cAMP ^125I scintillation proximity assay system (Amersham Biosciences).
EC50 values are calculated with a 95% confidence interval using GraphPad Prism software (using nonlinear regression analysis fitted with a sigmoidal dose-response curve with variable slope).

ICR:Hsd (CD-1) male mice = experiment: Effect of orally administered BBC-1 on food consumption in normal mice; assay type: in vivo
Protocol: ICR:Hsd (CD-1) male mice, 7-8 weeks old, were raised in separate cages and maintained at 23±1° C. on a 12-hr light, 12-hr dark cycle (0700-1900 hr light). Mice were allowed ad libitum access to water and standard chow pellets. Upon arrival mice were allowed to acclimate for 1 week. Following fasting for 16 hours, the animals (n=8) were subjected to a single oral gavage (PO, 5 ml/kg) of BBC1 (100 μg/ml, 1000 μg/ml) or vehicle (water). Immediately after administration, fixed food doses were added and re-weighed after 1, 2, 3, 4, 5, 8 and 24 hours.

| SMILES | IC50 (MC4R [1]) [nM] | also measured |
| --- | --- | --- |
| N=C(N)NCCC[C@@H]1NC(=O)[C@@H](Cc2ccccc2)NC(=O)[C@H](Cc2ccccc2)NC(=O)CCCCC(=O)NCCN(CC(N)=O)C(=O)[C@H](Cc2c[nH]c3ccccc23)NC1=O [BBC10] (F[dF]RW[N(2-Aminoethyl)Gly]-NH2; linker N-5 via Adipoyl) | 120 |  |
| N=C(N)NCCC[C@@H]1NC(=O)[C@@H](Cc2ccccc2)NC(=O)[C@H](Cc2ccccc2)NC(=O)CCC(=O)NCCN(CC(N)=O)C(=O)[C@H](Cc2c[nH]c3ccccc23)NC1=O [BBC1] (F[dF]RW[N(2-Aminoethyl)Gly]-NH2; linker N-5 via Suc) | 90 | intestinal metabolic stability [2]: high and enzymatically stable; MC4R functionality and selectivity (MC4R [3]): highly functional and selective; also recorded: specific activation of MC4R; food consumption (in words) (ICR:Hsd (CD-1) male mice; single oral administration, 24 hours): decreased food consumption; reduction of food consumption (ICR:Hsd (CD-1) male mice; single oral administration, over a period of 24 hr): ~40%; clinical signs post administration (ICR:Hsd (CD-1) male mice; single oral gavage, following 24 hours): did not show any special clinical signs |
| N=C(N)NCCC[C@@H]1NC(=O)[C@@H](Cc2ccccc2)NC(=O)[C@H](Cc2ccccc2)NC(=O)CCCC(=O)NCCCN(CC(N)=O)C(=O)[C@H](Cc2c[nH]c3ccccc23)NC1=O [BBC6] (F[dF]RW[NGly(3-aminopropyl)]-NH2; linker N-5 via Glutaryl) | 110 |  |
| N=C(N)NCCC[C@@H]1NC(=O)[C@@H](Cc2ccccc2)NC(=O)[C@H](Cc2ccccc2)NC(=O)CCCCCC(=O)NCCCN(CC(N)=O)C(=O)[C@H](Cc2c[nH]c3ccccc23)NC1=O [BBC7] (F[dF]RW[NGly(3-aminopropyl)]-NH2; linker N-5 via Heptanedioyl) | 100 |  |

Now from value to molecule, other results behind:

| IC50 (MC4R [1]) [nM] | SMILES | also measured |
| --- | --- | --- |
| 100 | N=C(N)NCCC[C@@H]1NC(=O)[C@@H](Cc2ccccc2)NC(=O)[C@H](Cc2ccccc2)NC(=O)CCCC(=O)NCCCCN(CC(N)=O)C(=O)[C@H](Cc2c[nH]c3ccccc23)NC1=O [BBC12] (F[dF]RW[Nlys]-NH2; linker N-5 via Glutaryl) |  |
| 100 | N=C(N)NCCC[C@@H]1NC(=O)[C@@H](Cc2ccccc2)NC(=O)[C@H](Cc2ccccc2)NC(=O)CCCCCC(=O)NCCN(CC(N)=O)C(=O)[C@H](Cc2c[nH]c3ccccc23)NC1=O [BBC9] (F[dF]RW[N(2-Aminoethyl)Gly]-NH2; linker N-5 via Heptanedioyl) |  |
| 60 | N=C(N)NCCC[C@@H]1NC(=O)[C@@H](Cc2ccccc2)NC(=O)[C@H](Cc2ccccc2)NC(=O)CCC(=O)NCCCN(CC(N)=O)C(=O)[C@H](Cc2c[nH]c3ccccc23)NC1=O [BBC8] (F[dF]RW[NGly(3-aminopropyl)]-NH2; linker N-5 via Suc) |  |
| 100 | N=C(N)NCCC[C@@H]1NC(=O)[C@@H](Cc2ccccc2)NC(=O)[C@H](Cc2ccccc2)NC(=O)CCCCC(=O)NCCCCN(CC(N)=O)C(=O)[C@H](Cc2c[nH]c3ccccc23)NC1=O [BBC13] (F[dF]RW[Nlys]-NH2; linker N-5 via Adipoyl) |  |
| 60 | N=C(N)NCCC[C@@H]1NC(=O)[C@@H](Cc2ccccc2)NC(=O)[C@H](Cc2ccccc2)NC(=O)CCCCC(=O)NCCCN(CC(N)=O)C(=O)[C@H](Cc2c[nH]c3ccccc23)NC1=O [BBC15] (F[dF]RW[NGly(3-aminopropyl)]-NH2; linker N-5 via Adipoyl) |  |
